Measured values taken from patent US9475816B2, “Substituted-1,4-dihydropyrazolo[4,3-b]indoles” (TAKEDA PHARMACEUTICAL COMPANY LIMITED, priority 2012, dated 2016).

How the values were obtained:
human MetAP2 enzyme [1] = molecular target: T1, human MetAP2 enzyme (Homo sapiens, UniProt P50579); assay: MetAP2 enzyme assay, MetAP2 enzyme complexed with cobalt ions; conditions: MetAP2 Co pIC50, 10 μM CoCl2; -log(IC50), IC50 molar
Protocol: (§1) DNA encoding the full-length sequence of human MetAP2 enzyme is amplified by PCR and cloned into a pFastBac expression vector (Invitrogen). Recombinant baculovirus incorporating the MetAP2 construct is generated by transposition using the Bac-to-Bac system (Invitrogen). The expression of recombinant protein is carried out by infection of Spodoptera frugiperda Sf9 cells (Invitrogen) in 5L Wave Bioreactors (Wave Biotech). Recombinant protein is isolated from cellular extracts by binding to an SP Hitrap Fast Flow or SP Sepharose (Sigma) column, and the protein is eluted using a NaCl gradient. Partially purified extracts of MetAP2 are further purified by an AKTA FPLC over a Superdex-200 column (GE). The purity of MetAP2 protein is determined on denaturing SDS-PAGE gel.
(§2) The results for each well are expressed as percent inhibition and calculated using the equation:

human MetAP2 enzyme [2] = molecular target: T1, human MetAP2 enzyme; assay: MetAP2 enzyme assay, MetAP2 enzyme complexed with manganese ions; conditions: MetAP2 Mn pIC50, 10 μM MnCl2; -log(IC50), IC50 molar
Protocol: as §1, §2

T1 sequence (P50579 whole entry): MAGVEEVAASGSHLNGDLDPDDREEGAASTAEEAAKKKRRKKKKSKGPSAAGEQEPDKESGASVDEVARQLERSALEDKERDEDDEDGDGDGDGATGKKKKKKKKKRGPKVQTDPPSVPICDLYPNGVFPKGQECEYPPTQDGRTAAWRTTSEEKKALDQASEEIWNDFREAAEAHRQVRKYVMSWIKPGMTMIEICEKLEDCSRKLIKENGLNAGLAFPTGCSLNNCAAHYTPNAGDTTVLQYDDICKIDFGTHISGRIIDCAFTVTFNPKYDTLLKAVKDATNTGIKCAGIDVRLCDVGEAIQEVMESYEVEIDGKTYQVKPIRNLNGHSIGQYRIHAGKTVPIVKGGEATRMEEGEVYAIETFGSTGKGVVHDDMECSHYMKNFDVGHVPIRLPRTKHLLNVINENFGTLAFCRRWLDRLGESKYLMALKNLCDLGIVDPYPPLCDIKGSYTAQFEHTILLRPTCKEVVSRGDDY

| IC50 (human MetAP2 enzyme [1]) | IC50 (human MetAP2 enzyme [2]) | Structure (SMILES) |
| --- | --- | --- |
| 7.94 nM | 10 nM | Cc1nc2[nH]c(=O)[nH]c2cc1-n1c2ccc(F)cc2c2[nH]ncc21 [Example 87, 6-(7-Fluoropyrazolo[4,3-b]indol-4(1H)-yl)-5-methyl-1H-imidazo[4,5-b]pyridin-2(3H)-one] |
| 25.1 nM | 10 nM | Cn1nc(C(=O)NCCO)cc1-n1c2ccc(F)cc2c2[nH]ncc21 [Example 88, 5-(7-Fluoropyrazolo[4,3-b]indol-4(1H)-yl)-N-(2-hydroxyethyl)-1-methyl-1H-pyrazole-3-carboxamide] |
| 20 nM | 10 nM | Cc1nc(N2CC(C(N)=O)C2)ncc1-n1c2ccc(F)cc2c2[nH]ncc21 [Example 89, 1-(5-(7-Fluoropyrazolo[4,3-b]indol-4(1H)-yl)-4-methylpyrimidin-2-yl)azetidine-3-carboxamide] |
| 15.8 nM | 5.01 nM | Cc1nc2c(cc1-n1c3ccc(F)cc3c3[nH]ncc31)ncn2C[C@@H](O)CO [Example 90, (2R)-3-(6-(7-Fluoropyrazolo[4,3-b]indol-4(1H)-yl)-5-methyl-3H-imidazo[4,5-b]pyridin-3-yl)propane-1,2-diol] |
| 6.31 nM | 12.6 nM | Cc1nc(N[C@@H](C)CO)ncc1-n1c2ccc(F)cc2c2[nH]ncc21 [Example 91, (2S)-2-((5-(7-Fluoropyrazolo[4,3-b]indol-4(1H)-yl)-4-methylpyrimidin-2-yl)amino)propan-1-ol] |
| 10 nM | 7.94 nM | Cc1nc(NC[C@H](C)O)ncc1-n1c2ccc(F)cc2c2[nH]ncc21 [Example 92, (2S)-1-((5-(7-Fluoropyrazolo[4,3-b]indol-4(1H)-yl)-4-methylpyrimidin-2-yl)amino)propan-2-ol] |
| 7.94 nM | 6.31 nM | Cc1nc(NC[C@@H](C)O)ncc1-n1c2ccc(F)cc2c2[nH]ncc21 [Example 93, (2R)-1-((5-(7-Fluoropyrazolo[4,3-b]indol-4(1H)-yl)-4-methylpyrimidin-2-yl)amino)propan-2-ol] |
| 10 nM | 7.94 nM | Cc1cc(C(=O)N2CC(O)C2)ncc1-n1c2ccc(F)cc2c2[nH]ncc21 [Example 94, (5-(7-Fluoropyrazolo[4,3-b]indol-4(1H)-yl)-4-methylpyridin-2-yl)(3-hydroxyazetidin-1-yl)methanone] |
| 31.6 nM | 20 nM | Cc1cc(C(=O)NCCO)ncc1-n1c2ccc(F)cc2c2[nH]ncc21 [Example 95, 5-(7-Fluoropyrazolo[4,3-b]indol-4(1H)-yl)-N-(2-hydroxyethyl)-4-methylpicolinamide] |
| 20 nM | 12.6 nM | Cc1nc(C(=O)NCCO)ccc1-n1c2ccc(F)cc2c2[nH]ncc21 [Example 96, 5-(7-Fluoropyrazolo[4,3-b]indol-4(1H)-yl)-N-(2-hydroxyethyl)-6-methylpicolinamide] |
| 10 nM | 6.31 nM | Cc1nc(C(=O)N2CC(O)C2)ccc1-n1c2ccc(F)cc2c2[nH]ncc21 [Example 97, (5-(7-Fluoropyrazolo[4,3-b]indol-4(1H)-yl)-6-methylpyridin-2-yl)(3-hydroxyazetidin-1-yl)methanone] |
| 501 nM | 158 nM | O=C(NCc1ccccc1)n1c2ccc(F)cc2c2[nH]ncc21 [Example 98, N-Benzyl-7-fluoropyrazolo[4,3-b]indole-4(1H)-carboxamide] |
| 794 nM | 316 nM | O=C(C1CC1)n1c2ccc(F)cc2c2[nH]ncc21 [Example 99, Cyclopropyl(7-fluoropyrazolo[4,3-b]indol-4(1H)-yl)methanone] |
| 12.6 nM | 12.6 nM | Cc1nc(C(=O)NC2(CO)CC2)ccc1-n1c2ccc(F)cc2c2[nH]ncc21 [Example 100, 5-(7-Fluoropyrazolo[4,3-b]indol-4(1H)-yl)-N-(1-(hydroxymethyl)cyclopropyl)-6-methylpicolinamide] |
| 10 nM | 10 nM | Cc1nc(C(=O)NC2CC2)ccc1-n1c2ccc(F)cc2c2[nH]ncc21 [Example 101, N-Cyclopropyl-5-(7-fluoropyrazolo[4,3-b]indol-4(1H)-yl)-6-methylpicolinamide] |
| 31.6 nM | 39.8 nM | COCCNC(=O)c1ccc(-n2c3ccc(F)cc3c3[nH]ncc32)c(C)n1 [Example 102, 5-(7-Fluoropyrazolo[4,3-b]indol-4(1H)-yl)-N-(2-methoxyethyl)-6-methylpicolinamide] |
| 6.31 nM | 10 nM | Cc1nc(N2CC[C@H](C(=O)NCCO)C2)ncc1-n1c2ccc(F)cc2c2[nH]ncc21 [Example 103, (3S)-1-(5-(7-Fluoropyrazolo[4,3-b]indol-4(1H)-yl)-4-methylpyrimidin-2-yl)-N-(2-hydroxyethyl)pyrrolidine-3-carboxamide] |
| 10 nM | 12.6 nM | Cc1cc(C(=O)NC2(CO)CC2)ncc1-n1c2ccc(F)cc2c2[nH]ncc21 [Example 104, 5-(7-Fluoropyrazolo[4,3-b]indol-4(1H)-yl)-N-(1-(hydroxymethyl)cyclopropyl)-4-methylpicolinamide] |

| IC50 (human MetAP2 enzyme [1]) | IC50 (human MetAP2 enzyme [2]) | Structure (SMILES) |
| --- | --- | --- |
| 50.1 nM | 63.1 nM | COCCNC(=O)c1cc(C)c(-n2c3ccc(F)cc3c3[nH]ncc32)cn1 [Example 105, 5-(7-Fluoropyrazolo[4,3-b]indol-4(1H)-yl)-N-(2-methoxyethyl)-4-methylpicolinamide] |
| 100 nM | 100 nM | Cc1cc(C(=O)N2CCOCC2)ncc1-n1c2ccc(F)cc2c2[nH]ncc21 [Example 106, (5-(7-Fluoropyrazolo[4,3-b]indol-4(1H)-yl)-4-methylpyridin-2-yl)(morpholino)methanone] |
| 20 nM | 12.6 nM | Cc1cc(C(N)=O)ncc1-n1c2ccc(F)cc2c2[nH]ncc21 [Example 107, 5-(7-Fluoropyrazolo[4,3-b]indol-4(1H)-yl)-4-methylpicolinamide] |
| 20 nM | 25.1 nM | Cc1cc(C(=O)N(C)C)ncc1-n1c2ccc(F)cc2c2[nH]ncc21 [Example 108, 5-(7-Fluoropyrazolo[4,3-b]indol-4(1H)-yl)-N,N,4-trimethylpicolinamide] |
| 25.1 nM | 25.1 nM | Cc1cc(C(=O)N2CC[C@@H](O)C2)ncc1-n1c2ccc(F)cc2c2[nH]ncc21 [Example 109, (5-(7-Fluoropyrazolo[4,3-b]indol-4(1H)-yl)-4-methylpyridin-2-yl)((R)-3-hydroxypyrrolidin-1-yl)methanone] |
| 7.94 nM | 12.6 nM | Cc1nc(N2CC[C@H](C(=O)N3CC(O)C3)C2)ncc1-n1c2ccc(F)cc2c2[nH]ncc21 [Example 111, ((3S)-1-(5-(7-Fluoropyrazolo[4,3-b]indol-4(1H)-yl)-4-methylpyrimidin-2-yl)pyrrolidin-3-yl)(3-hydroxyazetidin-1-yl)methanone] |
| 12.6 nM | 20 nM | CCN1CCn2ncc(-n3c4ccc(F)cc4c4[nH]ncc43)c2C1 [Example 112, 4-(5-Ethyl-4,5,6,7-tetrahydropyrazolo[1,5-a]pyrazin-3-yl)-7-fluoro-1,4-dihydropyrazolo[4,3-b]indole] |
| 12.6 nM | 10 nM | CNC(=O)c1cc(C)c(-n2c3ccc(F)cc3c3[nH]ncc32)cn1 [Example 113, 5-(7-Fluoropyrazolo[4,3-b]indol-4(1H)-yl)-N,4-dimethylpicolinamide] |
| 25.1 nM | 12.6 nM | Cc1cc(C(=O)N2CC(N)C2)ncc1-n1c2ccc(F)cc2c2[nH]ncc21 [Example 114, (3-Aminoazetidin-1-yl)(5-(7-fluoropyrazolo[4,3-b]indol-4(1H)-yl)-4-methylpyridin-2-yl)methanone] |
| 12.6 nM | 10 nM | Cc1cc(C(=O)NCCCO)ncc1-n1c2ccc(F)cc2c2[nH]ncc21 [Example 115, 5-(7-Fluoropyrazolo[4,3-b]indol-4(1H)-yl)-N-(3-hydroxypropyl)-4-methylpicolinamide] |
| 12.6 nM | 3.98 nM | Cc1nc2c(cc1-n1c3ccc(F)cc3c3[nH]ncc31)ncn2CCS(C)(=O)=O [Example 116, 7-Fluoro-4-(5-methyl-3-(2-(methylsulfonyl)ethyl)-3H-imidazo[4,5-b]pyridin-6-yl)-1,4-dihydropyrazolo[4,3-b]indole] |
| 20 nM | 7.94 nM | Cc1nc(C(=O)N2CC(N)C2)ccc1-n1c2ccc(F)cc2c2[nH]ncc21 [Example 117, (3-Aminoazetidin-1-yl)(5-(7-fluoropyrazolo[4,3-b]indol-4(1H)-yl)-6-methylpyridin-2-yl)methanone] |
| 25.1 nM | 10 nM | Cc1nc(C(=O)NCCCO)ccc1-n1c2ccc(F)cc2c2[nH]ncc21 [Example 118, 5-(7-Fluoropyrazolo[4,3-b]indol-4(1H)-yl)-N-(3-hydroxypropyl)-6-methylpicolinamide] |
| 20 nM | 10 nM | CNC(=O)c1ccc(-n2c3ccc(F)cc3c3[nH]ncc32)c(C)n1 [Example 119, 5-(7-Fluoropyrazolo[4,3-b]indol-4(1H)-yl)-N,6-dimethylpicolinamide] |
| 15.8 nM | 15.8 nM | Cc1nc(C(=O)N(C)CCO)ccc1-n1c2ccc(F)cc2c2[nH]ncc21 [Example 120, 5-(7-Fluoropyrazolo[4,3-b]indol-4(1H)-yl)-N-(2-hydroxyethyl)-N,6-dimethylpicolinamide] |
| 20 nM | 15.8 nM | Cc1nc(C(=O)N(C)CC#N)ccc1-n1c2ccc(F)cc2c2[nH]ncc21 [Example 121, N-(Cyanomethyl)-5-(7-fluoropyrazolo[4,3-b]indol-4(1H)-yl)-N,6-dimethylpicolinamide] |
| 7.94 nM | 7.94 nM | Cc1nc(C(=O)NCCC#N)ccc1-n1c2ccc(F)cc2c2[nH]ncc21 [Example 122, N-(2-Cyanoethyl)-5-(7-fluoropyrazolo[4,3-b]indol-4(1H)-yl)-6-methylpicolinamide] |
| 7.94 nM | 6.31 nM | Cc1nc(C(=O)NC[C@@H](C)O)ccc1-n1c2ccc(F)cc2c2[nH]ncc21 [Example 123, 5-(7-Fluoropyrazolo[4,3-b]indol-4(1H)-yl)-N—((R)-2-hydroxypropyl)-6-methylpicolinamide] |
